Measurements published in publication PMC11156954, “Inhibition and transport mechanisms of the ABC transporter hMRP5” (Nature Communications, 2024).
“Also recorded” adds a separate entry of the source. No end group written: not given here.

Legend:
hMRP5-Δ1-94 = biological target: T1, hMRP5-Δ1-94 (Homo sapiens, UniProt O15440); assay: MST binding assay, hMRP5-Δ1-94; conditions: MST, digitonin-purified hMRP5-Δ1-94, 15 min at room temperature
T1 construct: The codon-optimized full-length human ABCC5 gene encoding the MRP5 protein (UniProt ID: O15440); 8xHis (C); 2xstrep (C); made in house; host or cells: HEK293F
Description: We monitored the binding of different peptides to digitonin-purified hMRP5-Δ1-94-8xHis by MST assay (Monolith NT). HEPES buffer was used to replace Tris buffer during protein purification in the MST assay. The purified protein was mixed with RED-tris-NTA 2nd Generation dye (NanoTemper, MO-L018). Next, serially diluted peptides were mixed with the labeled protein. The mixtures were incubated for 15 min at room temperature, then the capillaries were loaded and the samples were assessed at 3% LED/excitation power and medium MST power. All peptides used in this study were synthesized in GL Biochem (Shanghai). The peptide sequence is provided as Source Data 5. The MST data were analyzed with MO.Affinity Analysis software.

hMRP4 = biological target: T2, hMRP4 (Homo sapiens, UniProt O15439); assay: MST binding assay, hMRP4; conditions: MST, three independent measurements
T2 sequence (O15439 1-1325): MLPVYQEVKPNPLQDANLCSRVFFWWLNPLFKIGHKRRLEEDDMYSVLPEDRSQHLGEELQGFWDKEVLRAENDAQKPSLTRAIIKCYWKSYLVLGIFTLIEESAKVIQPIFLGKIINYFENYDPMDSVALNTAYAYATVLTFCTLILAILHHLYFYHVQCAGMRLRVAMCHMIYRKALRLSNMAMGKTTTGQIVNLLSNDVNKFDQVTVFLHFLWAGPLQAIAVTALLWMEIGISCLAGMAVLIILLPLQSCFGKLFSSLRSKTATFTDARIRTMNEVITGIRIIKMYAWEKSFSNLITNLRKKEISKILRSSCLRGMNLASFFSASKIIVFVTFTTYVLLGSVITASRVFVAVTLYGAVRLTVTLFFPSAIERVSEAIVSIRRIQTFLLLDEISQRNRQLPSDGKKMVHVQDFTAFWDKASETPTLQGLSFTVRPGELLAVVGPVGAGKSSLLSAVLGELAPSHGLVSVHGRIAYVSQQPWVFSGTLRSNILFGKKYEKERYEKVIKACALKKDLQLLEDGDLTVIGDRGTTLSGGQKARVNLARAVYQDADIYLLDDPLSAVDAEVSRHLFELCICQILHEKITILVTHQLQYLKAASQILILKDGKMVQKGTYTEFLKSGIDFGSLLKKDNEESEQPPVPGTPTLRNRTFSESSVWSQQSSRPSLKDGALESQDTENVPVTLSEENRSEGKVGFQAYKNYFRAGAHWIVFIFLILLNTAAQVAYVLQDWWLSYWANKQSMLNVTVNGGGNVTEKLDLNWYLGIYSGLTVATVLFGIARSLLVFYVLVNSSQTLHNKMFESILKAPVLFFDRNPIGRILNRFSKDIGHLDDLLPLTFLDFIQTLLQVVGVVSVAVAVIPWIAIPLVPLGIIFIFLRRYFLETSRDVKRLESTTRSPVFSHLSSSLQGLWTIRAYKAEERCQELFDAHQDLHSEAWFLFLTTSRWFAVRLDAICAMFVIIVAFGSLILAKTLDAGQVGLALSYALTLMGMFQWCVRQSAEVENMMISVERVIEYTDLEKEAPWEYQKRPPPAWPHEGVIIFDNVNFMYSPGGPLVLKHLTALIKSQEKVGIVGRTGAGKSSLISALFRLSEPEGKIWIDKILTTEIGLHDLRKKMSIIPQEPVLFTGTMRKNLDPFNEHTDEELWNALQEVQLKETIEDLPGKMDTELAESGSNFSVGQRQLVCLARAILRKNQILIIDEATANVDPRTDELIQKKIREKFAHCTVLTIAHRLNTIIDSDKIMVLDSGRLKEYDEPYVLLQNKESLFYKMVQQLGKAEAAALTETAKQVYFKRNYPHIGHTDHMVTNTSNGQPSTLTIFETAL

GFP-hMRP5 = assay: Doxorubicin transport assay in Xenopus laevis oocytes; assay type: cell-based, human; conditions: oocytes expressing both hMRP5 and M5PI vs only hMRP5; 200 μM doxorubicin, 180 min; two-tailed t-test *P = 0.0442
Description: The transport assay was essentially done and modified as described. In brief, the cRNAs of C-terminal GFP-tagged hMRP5 and C-terminal mcherry-tagged M5PI were prepared from the linearized pcs2CAG vector DNA templates using the mMESSAGE mMACHINE T7 transcription system (Thermo Scientific, AM1344). Xenopus oocytes were injected with approximately 30 nl of cRNA (GFP-tagged hMRP5 and mcherry-tagged M5PI have the equal quantity 30 ng) or water after maintained in ND96 solution (96 mM NaCl, 2 mM KCl, 1 mM MgCl2, 1.8 mM CaCl2, 5 mM HEPES, pH 7.4) overnight. After 3 days of culture, the GFP and mcherry fluorescence of oocytes was detected using Nikon Confocal A1R, and oocytes showing similar fluorescence intensity were selected for assay. Then, oocytes were pre-incubated in Kulori buffer (90 mM NaCl, 1 mM KCl, 1 mM MgCl2, 5 mM HEPES, pH 7.4) for 5 min before being transferred to 1 ml Kulori buffer containing 200 μM doxorubicin for 180 min. The assay was stopped by removing the buffer and then washed with Kulori buffer at least 3 times and transferred into 1.5 ml tubes (3 oocytes per tube). Excess washing buffer was removed from the tube, and then 50 μl 50% methanol was added to the tube for oocyte homogenization by pipetting. The homogenized samples were centrifuged at 10,000 × g for 10 min at 4 °C, and the supernatants were transferred into new tubes and incubated at −20 °C until further analysis. The samples were acquired with a Q Exactive mass spectrometer coupled with UltiMate 3000 liquid chromatography system (Thermo scientific, CA, USA) after centrifugation at 20,000 × g for 15 min at 4 °C. A Hypersil GOLDTM C18 column (2.1 ×100 mm, 1.9 μm, Thermo Scientific) was used at a flow rate of 0.3 ml min^−1 for separation. Mobile phase A was 0.1% formic acid, while mobile phase B was acetonitrile modified with 0.1% formic acid. The mass spectrometer was operated in positive mode with a spray voltage of 3.5 kV. Full scan mass spectrometry data were recorded from the m/z range of 80–800. A standard dilution curve for quantification of doxorubicin was done. Statistical analysis of the transport assay results was performed using GraphPad Prism. Source data is provided as Source Data 6. The mass spectrometry data is provided as Supplementary Data 3.

T1 sequence (O15440 95-1437 limits assumed, stated change not applied): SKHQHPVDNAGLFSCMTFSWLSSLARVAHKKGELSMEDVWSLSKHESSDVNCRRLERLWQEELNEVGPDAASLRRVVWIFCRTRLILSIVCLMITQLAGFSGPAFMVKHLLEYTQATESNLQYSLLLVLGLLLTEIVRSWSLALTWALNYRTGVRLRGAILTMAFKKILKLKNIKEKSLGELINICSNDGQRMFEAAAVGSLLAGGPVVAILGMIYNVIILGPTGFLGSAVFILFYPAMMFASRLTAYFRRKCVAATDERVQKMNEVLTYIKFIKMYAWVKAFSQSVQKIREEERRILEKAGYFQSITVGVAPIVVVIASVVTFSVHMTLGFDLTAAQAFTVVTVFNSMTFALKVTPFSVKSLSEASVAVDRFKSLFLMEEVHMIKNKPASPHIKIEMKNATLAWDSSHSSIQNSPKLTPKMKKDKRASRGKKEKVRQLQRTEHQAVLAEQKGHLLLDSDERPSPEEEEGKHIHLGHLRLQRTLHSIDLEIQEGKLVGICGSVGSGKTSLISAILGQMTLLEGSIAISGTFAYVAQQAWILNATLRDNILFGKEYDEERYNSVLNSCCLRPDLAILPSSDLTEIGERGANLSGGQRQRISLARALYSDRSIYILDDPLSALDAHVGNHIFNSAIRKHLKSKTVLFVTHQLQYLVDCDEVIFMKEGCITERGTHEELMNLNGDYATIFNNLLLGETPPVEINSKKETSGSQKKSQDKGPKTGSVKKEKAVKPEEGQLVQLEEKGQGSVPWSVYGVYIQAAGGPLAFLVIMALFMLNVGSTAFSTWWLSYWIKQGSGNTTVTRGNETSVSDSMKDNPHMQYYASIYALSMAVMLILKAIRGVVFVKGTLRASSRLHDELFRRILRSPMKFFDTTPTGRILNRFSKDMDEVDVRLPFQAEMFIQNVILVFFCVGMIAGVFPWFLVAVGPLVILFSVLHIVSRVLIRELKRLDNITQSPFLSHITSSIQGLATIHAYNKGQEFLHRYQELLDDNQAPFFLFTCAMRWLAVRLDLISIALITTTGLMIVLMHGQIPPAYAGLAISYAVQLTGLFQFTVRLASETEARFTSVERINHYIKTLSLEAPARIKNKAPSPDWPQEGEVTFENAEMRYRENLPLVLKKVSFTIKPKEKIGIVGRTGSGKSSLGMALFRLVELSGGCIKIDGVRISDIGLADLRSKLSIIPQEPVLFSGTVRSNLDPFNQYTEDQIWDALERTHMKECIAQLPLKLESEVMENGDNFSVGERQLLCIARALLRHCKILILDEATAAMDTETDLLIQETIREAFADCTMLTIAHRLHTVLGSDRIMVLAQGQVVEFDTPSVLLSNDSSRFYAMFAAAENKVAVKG

CSKFRRTRPLECQDALETAARAEGLSLDASMHSQLRILDEC (cysteines drawn unpaired) [M5PI]
binding affinity to hMRP5, in words (hMRP5-Δ1-94): stronger hMRP5 affinity than selected anticancer drugs | binding affinity to hMRP5, in words (hMRP5-Δ1-94; listed as Cys35-Cys75 peptide): higher affinity for hMRP5 compared to the original Asp35-Glu75 peptide | binding affinity to hMRP5, in words (hMRP5-Δ1-94; listed as D35C-E75C): highest affinity for hMRP5 among these peptides; also recorded: higher binding affinity to hMRP5 than the well-studied substrate doxorubicin and inhibitor trequinsin | binding affinity to hMRP4, in words (hMRP4): not detectable; also recorded: could not be estimated through MST test; also recorded: rarely | inhibition of doxorubicin transport, in words (GFP-hMRP5): contained a relatively higher amount of doxorubicin than oocytes expressing only hMRP5
